From the NIST ThermoML archive (doi:10.1021/acs.jced.6b00536)
“And” between values parts separate entries of the source, which are not always exact repeats. Identical values can stand only once. ± gives the expanded uncertainty stated by the source.

Settings: Gas, Frequency=0.05 MHz, Single path-length method

FC(F)(F)C(F)(F)F [hexafluoroethane]
Settings | speed of sound
250.8 K, 68.9 kPa | 127.66 ± 0.09 m/s
250.8 K, 77.3 kPa | 127.49 ± 0.09 m/s
250.8 K, 95 kPa | 127.13 ± 0.09 m/s
250.8 K, 108.8 kPa | 126.85 ± 0.1 m/s
250.8 K, 128.5 kPa | 126.44 ± 0.1 m/s
250.8 K, 149.2 kPa | 126.04 ± 0.1 m/s
250.8 K, 169.4 kPa | 125.61 ± 0.1 m/s
250.8 K, 177.2 kPa | 125.45 ± 0.1 m/s
250.8 K, 195.4 kPa | 125.08 ± 0.1 m/s
250.8 K, 211.5 kPa | 124.74 ± 0.1 m/s
250.8 K, 225.5 kPa | 124.44 ± 0.1 m/s
256.2 K, 70.4 kPa | 128.95 ± 0.09 m/s
256.2 K, 78.9 kPa | 128.78 ± 0.09 m/s
256.2 K, 97 kPa | 128.43 ± 0.09 m/s
256.2 K, 111.1 kPa | 128.17 ± 0.09 m/s
256.2 K, 131.3 kPa | 127.77 ± 0.1 m/s
256.2 K, 152.5 kPa | 127.38 ± 0.1 m/s
256.2 K, 173.1 kPa | 126.97 ± 0.1 m/s
256.2 K, 181.1 kPa | 126.82 ± 0.1 m/s
256.2 K, 199.7 kPa | 126.45 ± 0.1 m/s
256.2 K, 216.2 kPa | 126.14 ± 0.1 m/s
256.2 K, 230.6 kPa | 125.83 ± 0.1 m/s
261.5 K, 71.8 kPa | 130.24 ± 0.09 m/s
261.5 K, 80.5 kPa | 130.09 ± 0.09 m/s
261.5 K, 99 kPa | 129.73 ± 0.09 m/s
261.5 K, 113.4 kPa | 129.49 ± 0.09 m/s
261.5 K, 134.1 kPa | 129.1 ± 0.09 m/s
261.5 K, 155.7 kPa | 128.71 ± 0.09 m/s
261.5 K, 176.8 kPa | 128.32 ± 0.1 m/s
261.5 K, 185 kPa | 128.19 ± 0.1 m/s
261.5 K, 204 kPa | 127.83 ± 0.1 m/s
261.5 K, 221 kPa | 127.51 ± 0.1 m/s
261.5 K, 235.7 kPa | 127.24 ± 0.1 m/s
266.8 K, 73.3 kPa | 131.5 ± 0.09 m/s
266.8 K, 82.1 kPa | 131.33 ± 0.09 m/s
266.8 K, 101.1 kPa | 131.02 ± 0.09 m/s
266.8 K, 115.7 kPa | 130.77 ± 0.09 m/s
266.8 K, 136.8 kPa | 130.41 ± 0.09 m/s
266.8 K, 158.9 kPa | 130.04 ± 0.09 m/s
266.8 K, 180.5 kPa | 129.65 ± 0.09 m/s
266.8 K, 188.9 kPa | 129.52 ± 0.09 m/s
266.8 K, 208.3 kPa | 129.18 ± 0.1 m/s
266.8 K, 225.6 kPa | 128.87 ± 0.1 m/s
266.8 K, 240.8 kPa | 128.62 ± 0.1 m/s
272.1 K, 74.7 kPa | 132.77 ± 0.09 m/s
272.1 K, 83.7 kPa | 132.62 ± 0.09 m/s
272.1 K, 103.1 kPa | 132.3 ± 0.09 m/s
272.1 K, 118 kPa | 132.05 ± 0.09 m/s
272.1 K, 139.6 kPa | 131.72 ± 0.09 m/s
272.1 K, 162.1 kPa | 131.35 ± 0.09 m/s
272.1 K, 184.3 kPa | 131.01 ± 0.09 m/s
272.1 K, 192.8 kPa | 130.85 ± 0.09 m/s
272.1 K, 212.6 kPa | 130.53 ± 0.09 m/s
272.1 K, 230.5 kPa | 130.23 ± 0.1 m/s
272.1 K, 246.8 kPa | 129.96 ± 0.1 m/s
277.4 K, 76.2 kPa | 134.03 ± 0.09 m/s
277.4 K, 85.4 kPa | 133.89 ± 0.09 m/s
277.4 K, 105.1 kPa | 133.57 ± 0.09 m/s
277.4 K, 120.4 kPa | 133.33 ± 0.09 m/s
277.4 K, 142.3 kPa | 132.99 ± 0.09 m/s
277.4 K, 165.4 kPa | 132.66 ± 0.09 m/s
277.4 K, 188 kPa | 132.3 ± 0.09 m/s
277.4 K, 196.7 kPa | 132.17 ± 0.09 m/s
277.4 K, 216.9 kPa | 131.84 ± 0.09 m/s
277.4 K, 235.2 kPa | 131.58 ± 0.09 m/s
277.4 K, 251.8 kPa | 131.3 ± 0.1 m/s
282.7 K, 77.6 kPa | 135.27 ± 0.09 m/s
282.7 K, 87 kPa | 135.13 ± 0.09 m/s
282.7 K, 107.1 kPa | 134.83 ± 0.09 m/s
282.7 K, 122.7 kPa | 134.61 ± 0.09 m/s
282.7 K, 145.1 kPa | 134.28 ± 0.09 m/s
282.7 K, 168.6 kPa | 133.93 ± 0.09 m/s
282.7 K, 191.6 kPa | 133.6 ± 0.09 m/s
282.7 K, 200.5 kPa | 133.47 ± 0.09 m/s
282.7 K, 221.3 kPa | 133.16 ± 0.09 m/s
282.7 K, 239.9 kPa | 132.89 ± 0.09 m/s
282.7 K, 256.9 kPa | 132.64 ± 0.1 m/s
287.9 K, 79.1 kPa | 136.49 ± 0.09 m/s
287.9 K, 88.6 kPa | 136.37 ± 0.09 m/s
287.9 K, 109.1 kPa | 136.08 ± 0.09 m/s
287.9 K, 125 kPa | 135.85 ± 0.09 m/s
287.9 K, 147.9 kPa | 135.54 ± 0.09 m/s
287.9 K, 171.8 kPa | 135.21 ± 0.09 m/s
287.9 K, 195.4 kPa | 134.9 ± 0.09 m/s
287.9 K, 204.4 kPa | 134.76 ± 0.09 m/s
287.9 K, 225.6 kPa | 134.47 ± 0.09 m/s
287.9 K, 244.5 kPa | 134.2 ± 0.09 m/s
287.9 K, 262 kPa | 133.96 ± 0.09 m/s
293.2 K, 80.5 kPa | 137.71 ± 0.09 m/s
293.2 K, 85.4 kPa | 137.65 ± 0.09 m/s
293.2 K, 90.3 kPa | 137.61 ± 0.09 m/s
293.2 K, 111.1 kPa | 137.3 ± 0.09 m/s and 137.31 ± 0.09 m/s
293.2 K, 127.3 kPa | 137.08 ± 0.09 m/s and 137.09 ± 0.09 m/s
293.2 K, 150.6 kPa | 136.79 ± 0.09 m/s and 136.8 ± 0.09 m/s
293.2 K, 175 kPa | 136.48 ± 0.09 m/s
293.2 K, 175.1 kPa | 136.49 ± 0.09 m/s
293.2 K, 199 kPa | 136.16 ± 0.09 m/s
293.2 K, 203.7 kPa | 136.09 ± 0.09 m/s
293.2 K, 208.3 kPa | 136.06 ± 0.09 m/s
293.2 K, 229.9 kPa | 135.75 ± 0.09 m/s and 135.74 ± 0.09 m/s
293.2 K, 249.1 kPa | 135.49 ± 0.09 m/s
293.2 K, 249.2 kPa | 135.5 ± 0.09 m/s
293.2 K, 265.6 kPa | 135.26 ± 0.09 m/s
293.2 K, 267 kPa | 135.26 ± 0.09 m/s
298.5 K, 82 kPa | 138.94 ± 0.09 m/s
298.5 K, 91.9 kPa | 138.8 ± 0.09 m/s
298.5 K, 113.1 kPa | 138.55 ± 0.09 m/s
298.5 K, 129.7 kPa | 138.33 ± 0.09 m/s
298.5 K, 153.4 kPa | 138.03 ± 0.09 m/s
298.5 K, 178.3 kPa | 137.71 ± 0.09 m/s
298.5 K, 202.8 kPa | 137.42 ± 0.09 m/s
298.5 K, 212.2 kPa | 137.32 ± 0.09 m/s
298.5 K, 234.2 kPa | 137.02 ± 0.09 m/s
298.5 K, 253.9 kPa | 136.77 ± 0.09 m/s
298.5 K, 272 kPa | 136.54 ± 0.09 m/s
303.7 K, 83.4 kPa | 140.14 ± 0.09 m/s
303.7 K, 93.5 kPa | 140.03 ± 0.09 m/s
303.7 K, 115.2 kPa | 139.76 ± 0.09 m/s
303.7 K, 132 kPa | 139.56 ± 0.09 m/s
303.7 K, 156.2 kPa | 139.26 ± 0.09 m/s
303.7 K, 181.5 kPa | 138.98 ± 0.09 m/s
303.7 K, 206.4 kPa | 138.67 ± 0.09 m/s
303.7 K, 216.1 kPa | 138.57 ± 0.09 m/s
303.7 K, 238.5 kPa | 138.3 ± 0.09 m/s
303.7 K, 258.6 kPa | 138.06 ± 0.09 m/s
303.7 K, 277.2 kPa | 137.85 ± 0.09 m/s
308.9 K, 84.9 kPa | 141.33 ± 0.09 m/s
308.9 K, 95.1 kPa | 141.19 ± 0.09 m/s
308.9 K, 117.2 kPa | 140.94 ± 0.09 m/s
308.9 K, 134.2 kPa | 140.73 ± 0.09 m/s
308.9 K, 158.9 kPa | 140.47 ± 0.09 m/s
308.9 K, 184.7 kPa | 140.18 ± 0.09 m/s
308.9 K, 210.1 kPa | 139.9 ± 0.09 m/s
308.9 K, 219.9 kPa | 139.79 ± 0.09 m/s
308.9 K, 242.8 kPa | 139.54 ± 0.09 m/s
308.9 K, 263.3 kPa | 139.32 ± 0.09 m/s
308.9 K, 282.1 kPa | 139.06 ± 0.09 m/s
314.1 K, 86.3 kPa | 142.49 ± 0.09 m/s
314.1 K, 96.8 kPa | 142.38 ± 0.09 m/s
314.1 K, 119.2 kPa | 142.15 ± 0.09 m/s
314.1 K, 136.6 kPa | 141.94 ± 0.09 m/s
314.1 K, 161.6 kPa | 141.69 ± 0.09 m/s
314.1 K, 187.9 kPa | 141.4 ± 0.09 m/s
314.1 K, 213.8 kPa | 141.12 ± 0.09 m/s
314.1 K, 223.7 kPa | 140.99 ± 0.09 m/s
314.1 K, 247.1 kPa | 140.76 ± 0.09 m/s
314.1 K, 267.9 kPa | 140.53 ± 0.09 m/s
314.1 K, 287.2 kPa | 140.33 ± 0.09 m/s
319.3 K, 87.7 kPa | 143.67 ± 0.09 m/s
319.3 K, 98.4 kPa | 143.57 ± 0.09 m/s
319.3 K, 121.2 kPa | 143.32 ± 0.09 m/s
319.3 K, 138.9 kPa | 143.13 ± 0.09 m/s
319.3 K, 164.4 kPa | 142.88 ± 0.09 m/s
319.3 K, 191.2 kPa | 142.61 ± 0.09 m/s
319.3 K, 217.5 kPa | 142.34 ± 0.09 m/s
319.3 K, 227.6 kPa | 142.24 ± 0.09 m/s
319.3 K, 251.3 kPa | 141.97 ± 0.09 m/s
319.3 K, 272.7 kPa | 141.78 ± 0.09 m/s
319.3 K, 292.2 kPa | 141.56 ± 0.09 m/s
324.5 K, 89.2 kPa | 144.83 ± 0.09 m/s
324.5 K, 100 kPa | 144.71 ± 0.09 m/s
324.5 K, 123.2 kPa | 144.49 ± 0.09 m/s
324.5 K, 141.2 kPa | 144.31 ± 0.09 m/s
324.5 K, 167.2 kPa | 144.07 ± 0.09 m/s
324.5 K, 194.4 kPa | 143.8 ± 0.09 m/s
324.5 K, 221.2 kPa | 143.52 ± 0.09 m/s
324.5 K, 231.5 kPa | 143.44 ± 0.09 m/s
324.5 K, 255.7 kPa | 143.2 ± 0.09 m/s
324.5 K, 277.3 kPa | 142.99 ± 0.09 m/s
324.5 K, 297.1 kPa | 142.79 ± 0.09 m/s
